Laboratory results taken from ChEMBL document CHEMBL1201862, “PubChem BioAssay data set” (2004).
Blank lines part the entries; values can stand above or below the compound they belong to. The source made the active and inactive calls.

Key:
[1] = molecular target: T1, RNA-binding protein pos-1 (Caenorhabditis elegans, UniProt G5EF15); assay: disruptors of C. elegans POS-1 RNA interaction – biochemical, fluorescence polarization, dose response (AID 1964);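 further: purified POS-1 fused to maltose binding protein made in E. coli; potency of compounds blocking POS-1 binding to fluorescent RNA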
T1 sequence (G5EF15 whole entry): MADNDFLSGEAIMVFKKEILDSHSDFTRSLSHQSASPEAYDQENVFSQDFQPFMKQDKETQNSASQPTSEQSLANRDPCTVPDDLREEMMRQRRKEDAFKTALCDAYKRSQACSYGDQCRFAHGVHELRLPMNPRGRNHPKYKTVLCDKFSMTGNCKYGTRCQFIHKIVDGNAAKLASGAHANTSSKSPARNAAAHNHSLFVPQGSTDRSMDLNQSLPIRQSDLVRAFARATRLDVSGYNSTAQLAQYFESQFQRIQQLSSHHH

[2] = molecular target: T2, Zinc finger protein mex-5 (Caenorhabditis elegans, UniProt Q9XUB2); assay: potency of MEX-5 RNA-binding blockers – biochemical, C. elegans, fluorescence polarization, dose response (AID 1960)
T2 sequence (Q9XUB2 whole entry): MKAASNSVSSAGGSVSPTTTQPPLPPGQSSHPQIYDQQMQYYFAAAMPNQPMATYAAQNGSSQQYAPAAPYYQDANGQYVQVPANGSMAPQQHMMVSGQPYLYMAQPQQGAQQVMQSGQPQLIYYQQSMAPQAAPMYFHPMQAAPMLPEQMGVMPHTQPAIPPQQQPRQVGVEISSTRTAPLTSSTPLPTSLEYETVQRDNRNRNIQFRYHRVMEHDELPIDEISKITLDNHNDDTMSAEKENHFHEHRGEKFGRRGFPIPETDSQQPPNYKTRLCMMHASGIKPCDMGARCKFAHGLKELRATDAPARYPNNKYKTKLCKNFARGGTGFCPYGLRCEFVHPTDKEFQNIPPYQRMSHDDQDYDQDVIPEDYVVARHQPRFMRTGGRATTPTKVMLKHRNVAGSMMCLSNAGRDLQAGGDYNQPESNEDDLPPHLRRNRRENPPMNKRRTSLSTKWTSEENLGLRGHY

[3] = molecular target: Cytochrome P450 2C19 (Homo sapiens, UniProt P33261); assay: Cytochrome panel assay with activity outcomes. Panel member name: p450-cyp2c19 Compounds with AC50 equal or less than 10 uM are considered active; assay type: functional
Sequence of Cytochrome P450 2C19 (P33261 whole entry): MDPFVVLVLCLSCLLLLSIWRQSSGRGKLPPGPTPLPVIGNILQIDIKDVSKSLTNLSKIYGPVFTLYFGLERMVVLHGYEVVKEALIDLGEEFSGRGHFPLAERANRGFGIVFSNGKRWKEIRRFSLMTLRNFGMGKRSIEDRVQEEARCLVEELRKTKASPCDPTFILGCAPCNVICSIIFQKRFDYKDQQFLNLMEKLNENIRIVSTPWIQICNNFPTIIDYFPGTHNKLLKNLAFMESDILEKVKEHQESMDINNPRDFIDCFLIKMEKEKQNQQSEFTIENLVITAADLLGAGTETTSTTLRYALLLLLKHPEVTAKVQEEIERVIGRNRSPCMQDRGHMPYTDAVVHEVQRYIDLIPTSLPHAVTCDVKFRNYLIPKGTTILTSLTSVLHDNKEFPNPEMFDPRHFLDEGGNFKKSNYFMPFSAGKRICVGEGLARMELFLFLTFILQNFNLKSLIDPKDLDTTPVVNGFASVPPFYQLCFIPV

[4] = molecular target: Cytochrome P450 2C9 (Homo sapiens, UniProt P11712)
Sequence of Cytochrome P450 2C9 (P11712 whole entry): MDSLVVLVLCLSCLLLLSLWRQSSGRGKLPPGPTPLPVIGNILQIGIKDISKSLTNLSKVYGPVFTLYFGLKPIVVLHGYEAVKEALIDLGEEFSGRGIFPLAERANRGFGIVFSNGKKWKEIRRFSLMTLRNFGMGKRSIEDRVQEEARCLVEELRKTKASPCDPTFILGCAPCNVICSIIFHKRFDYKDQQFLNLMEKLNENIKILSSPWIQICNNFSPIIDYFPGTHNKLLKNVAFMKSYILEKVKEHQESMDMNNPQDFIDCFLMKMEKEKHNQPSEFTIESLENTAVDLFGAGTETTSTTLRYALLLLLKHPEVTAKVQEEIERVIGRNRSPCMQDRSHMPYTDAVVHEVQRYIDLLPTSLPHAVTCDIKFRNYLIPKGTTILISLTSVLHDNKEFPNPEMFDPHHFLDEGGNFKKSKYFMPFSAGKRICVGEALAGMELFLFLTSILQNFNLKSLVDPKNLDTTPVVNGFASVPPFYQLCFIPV

[5] = molecular target: Cytochrome P450 2D6 (Homo sapiens, UniProt P10635);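 further: CYP2D6 member of a cytochrome P450 panel assay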
Sequence of Cytochrome P450 2D6 (P10635 whole entry): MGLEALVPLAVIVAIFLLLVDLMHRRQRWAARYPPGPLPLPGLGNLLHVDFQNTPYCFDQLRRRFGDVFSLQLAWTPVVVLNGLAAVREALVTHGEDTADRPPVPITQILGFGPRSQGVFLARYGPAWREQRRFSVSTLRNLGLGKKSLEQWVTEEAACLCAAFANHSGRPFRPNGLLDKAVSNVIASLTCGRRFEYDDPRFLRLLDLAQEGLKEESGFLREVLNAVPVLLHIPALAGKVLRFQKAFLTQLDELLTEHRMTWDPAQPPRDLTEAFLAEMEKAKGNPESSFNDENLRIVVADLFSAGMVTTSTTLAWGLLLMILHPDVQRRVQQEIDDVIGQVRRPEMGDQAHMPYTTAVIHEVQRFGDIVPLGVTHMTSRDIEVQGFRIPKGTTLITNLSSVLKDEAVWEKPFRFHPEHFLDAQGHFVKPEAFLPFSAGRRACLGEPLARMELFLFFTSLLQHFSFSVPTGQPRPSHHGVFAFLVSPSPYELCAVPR

[6] = molecular target: Cytochrome P450 3A4 (Homo sapiens, UniProt P08684);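 further: CYP3A4 tested as one member of a cytochrome P450 panel screen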
Sequence of Cytochrome P450 3A4 (P08684 whole entry): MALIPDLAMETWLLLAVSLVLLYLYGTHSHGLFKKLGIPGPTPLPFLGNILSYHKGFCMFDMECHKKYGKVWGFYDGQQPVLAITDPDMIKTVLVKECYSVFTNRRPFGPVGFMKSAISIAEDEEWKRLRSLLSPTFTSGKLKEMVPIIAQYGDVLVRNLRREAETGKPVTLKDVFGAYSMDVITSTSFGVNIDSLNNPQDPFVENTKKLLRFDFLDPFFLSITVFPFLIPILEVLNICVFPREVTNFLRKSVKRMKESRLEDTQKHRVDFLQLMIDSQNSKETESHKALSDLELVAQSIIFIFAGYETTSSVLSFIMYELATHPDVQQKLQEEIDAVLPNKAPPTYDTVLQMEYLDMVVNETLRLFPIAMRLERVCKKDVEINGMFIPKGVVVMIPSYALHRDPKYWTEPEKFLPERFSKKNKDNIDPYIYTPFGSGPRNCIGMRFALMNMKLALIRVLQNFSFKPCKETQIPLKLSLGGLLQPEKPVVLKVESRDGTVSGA

[7] = NIH-3T3 fibroblast cytotoxicity, dose response, cytotoxicity control, cell-based, fluorescence, Alamar Blue, secondary assay (AID 2327); assay type: functional;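 further: NIH-3T3 mouse fibroblasts cultured with fluconazole at 8 µg/mL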
[8] = fluconazole-exposed Candida albicans growth modulators – fluorescence, retest, confirmation (AID 2467); assay type: functional, cell-based
[9] = molecular target: T3, Cytochrome P450 1A2 (Homo sapiens, UniProt P05177);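 further: PubChem cytochrome P450 panel assay, CYP1A2 panel member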
T3 sequence (P05177 whole entry): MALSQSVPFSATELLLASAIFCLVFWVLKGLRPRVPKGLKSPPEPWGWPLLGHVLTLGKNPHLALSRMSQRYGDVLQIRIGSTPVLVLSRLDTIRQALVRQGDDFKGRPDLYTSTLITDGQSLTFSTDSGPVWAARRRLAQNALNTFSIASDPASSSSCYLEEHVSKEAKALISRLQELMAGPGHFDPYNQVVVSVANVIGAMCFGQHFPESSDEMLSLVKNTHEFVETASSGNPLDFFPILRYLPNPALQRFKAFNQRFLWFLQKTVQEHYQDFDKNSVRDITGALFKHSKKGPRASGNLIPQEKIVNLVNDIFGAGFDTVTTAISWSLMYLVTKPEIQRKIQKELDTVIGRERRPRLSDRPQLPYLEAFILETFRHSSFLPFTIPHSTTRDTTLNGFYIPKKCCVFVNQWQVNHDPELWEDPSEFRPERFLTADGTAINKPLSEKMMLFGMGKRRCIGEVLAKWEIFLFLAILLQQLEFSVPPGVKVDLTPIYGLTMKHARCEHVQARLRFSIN

[10] = Luminescence Cell-Based Dose Confirmation HTS to Identify Inhibitors of Platelet Dense Granule Release. [Related pubchem assays: 1663 (Primary HTS), 1678 (Summary of Project)]; assay type: functional

EC50 [1]: > 300 µM (not active)
EC50 [2]: > 300 µM (inconclusive)
Structure (SMILES): O=C(NNC(=O)c1csc(-c2cccnc2)n1)c1ccccc1

AC50 ([3]; read-out: AC50): 31.6 µM (inconclusive)
Structure (SMILES): CCNc1ncc2nc(CCc3ccccc3)c(=O)n(-c3ccccc3)c2n1

AC50 ([3]; read-out: AC50): 28.2 µM (inconclusive)
AC50 [5]: 7.94 µM (inconclusive)
AC50 [6]: 28.2 µM (inconclusive)
AC50 [4]: 12.6 µM (inconclusive)
Structure (SMILES): O=C(CSc1nnc(-c2cccs2)n1-c1ccccc1)N1CCCC1

AC50 ([3]; read-out: AC50): 0.891 µM (inconclusive)
Structure (SMILES): CCC(=O)Nc1ccc(C(=O)NNC(=O)c2cccs2)cc1

AC50 [3]: inconclusive
Structure (SMILES): CC(CP(=O)(O)O)NC(=O)Cc1ccccc1 (centres undefined)

AC50 ([3]; read-out: AC50): 3.16 µM (inconclusive)
AC50 [9]: 2 µM (inconclusive)
AC50 [6]: 6.31 µM (inconclusive)
Structure (SMILES): CCCC[C@@H]1C[C@H]1C(NC(=O)c1cccs1)c1ccc(-c2ccccc2)cc1 (some centres undefined)

Second part, the compound before the results:

Structure (SMILES): N#Cc1c(N)n(-c2ccc(C(=O)O)cc2)c2nc3ccccc3nc12
EC50 [1]: > 300 µM (not active)
EC50 [2]: > 300 µM (not active)

Structure (SMILES): COc1cc(C(=O)Nc2ccc(-c3nnc(-c4ccco4)o3)cc2)cc(OC)c1OC
AC50 ([3]; read-out: AC50): 6.31 µM (inconclusive)
AC50 [4]: 7.94 µM (inconclusive)

Structure (SMILES): O=c1/c(=C\c2ccc(O)cc2)sc2nc(-c3ccccc3)c(-c3ccccc3)n12
EC50 [1]: > 300 µM (not active)
EC50 [2]: > 300 µM (inconclusive)

Structure (SMILES): COc1ccccc1-c1ccc2ncnc(N3CCN(C)CC3)c2c1
AC50 ([3]; read-out: AC50): 15.8 µM (inconclusive)
AC50 [5]: 39.8 µM (inconclusive)

Structure (SMILES): COc1ccnc(Oc2cccc(C(F)(F)F)c2)c1C(=O)N=CNOCc1ccccc1F
EC50 [7]: > 150 µM (inactive)
EC50 [8]: > 38 µM (not active)

Structure (SMILES): CCOC(=O)Cc1csc(NC(=O)CSc2nnc(-c3ccc(NS(=O)(=O)CC)cc3)o2)n1
EC50 [7]: > 150 µM (inactive)
EC50 [8]: > 38 µM (not active)

Structure (SMILES): Cc1nn2c(N3CCOCC3)c3c(nc2c1-c1ccccc1)CCCC3
EC50 [1]: > 300 µM (not active)
EC50 [2]: > 300 µM (not active)

Structure (SMILES): COC(=O)c1ccc(-n2c(C)cc(C(=O)COC(=O)CNS(=O)(=O)c3ccc(C)cc3)c2C)cc1
EC50 [1]: > 300 µM (not active)
EC50 [2]: > 300 µM (not active)

Structure (SMILES): Cc1ccc(C)c(NC(S)=NNC(=O)c2csc3c2CCC(C)C3)c1 (centres undefined)
EC50 [7]: > 150 µM (inactive)
EC50 [8]: 3.32 µM (active)

Structure (SMILES): O=C(COC(=O)c1[nH]nc2ccccc12)Nc1cccc(S(=O)(=O)N2CCOCC2)c1
EC50 [10]: > 112 µM (not active)

Structure (SMILES): OCCN1CCN(CCC=C2c3ccccc3Sc3ccc(Cl)cc32)CC1 [ZUCLOPENTHIXOL]
AC50 ([3]; read-out: AC50): 2.51 µM (inconclusive)
AC50 [5]: 10 µM (inconclusive)
AC50 [6]: 12.6 µM (inconclusive)
